ChEMBL document CHEMBL5223082, “Alkyl-Aryl-Vancomycins: Multimodal Glycopeptides with Weak Dependence on the Bacterial Metabolic State” (J Med Chem, 2021)
Converted amounts (≈) assume the structure as drawn.

How the values were obtained:
Staphylococcus aureus [1] = experiment: Antibacterial activity against Methicillin-resistant Staphylococcus aureus ATCC 33591 assessed as inhibition of bacterial growth incubated for 18 to 24 hrs by CLSI microbroth dilution method; type: functional; conditions: time 18-24 hrs
Staphylococcus aureus [2] = experiment: Antibacterial activity against Vancomycin-resistant Staphylococcus aureus 1 assessed as inhibition of bacterial growth incubated for 18 to 24 hrs by CLSI microbroth dilution method; type: functional; conditions: time 18-24 hrs
Staphylococcus aureus [3] = experiment: Antibacterial activity against Vancomycin-resistant Staphylococcus aureus 4 assessed as inhibition of bacterial growth incubated for 18 to 24 hrs by CLSI microbroth dilution method; type: functional; conditions: time 18-24 hrs
Staphylococcus aureus [4] = experiment: Antibacterial activity against Vancomycin-resistant Staphylococcus aureus 12 assessed as inhibition of bacterial growth incubated for 18 to 24 hrs by CLSI microbroth dilution method; type: functional; conditions: time 18-24 hrs
Enterococcus [5] = experiment: Antibacterial activity against Vancomycin-resistant Enterococci NR30903 assessed as inhibition of bacterial growth incubated for 18 to 24 hrs by CLSI microbroth dilution method; type: functional; conditions: time 18-24 hrs
Enterococcus [6] = experiment: Antibacterial activity against Vancomycin-resistant Enterococci NR30909 assessed as inhibition of bacterial growth incubated for 18 to 24 hrs by CLSI microbroth dilution method; type: functional; conditions: time 18-24 hrs
Enterococcus [7] = experiment: Antibacterial activity against Vancomycin-resistant Enterococci ATCC 51575 assessed as inhibition of bacterial growth incubated for 18 to 24 hrs by CLSI microbroth dilution method; type: functional; conditions: time 18-24 hrs
Enterococcus [8] = experiment: Antibacterial activity against Vancomycin-resistant Enterococci ATCC 51559 assessed as inhibition of bacterial growth incubated for 18 to 24 hrs by CLSI microbroth dilution method; type: functional; conditions: time 18-24 hrs
[9] = Induction of hemolysis in human erythrocytes incubated for 1 hr by microtiter plater reader analysis; type: toxicity, cell-based, Erythrocyte
Staphylococcus aureus [10] = experiment: Potency index, ratio of Vancomycin MIC to test compound MIC for antibacterial activity against Vancomycin-resistant Staphylococcus aureus 1; type: functional
Staphylococcus aureus [11] = experiment: Potency index, ratio of Vancomycin MIC to test compound MIC for antibacterial activity against Vancomycin-resistant Staphylococcus aureus 4; type: functional
Staphylococcus aureus [12] = experiment: Potency index, ratio of Vancomycin MIC to test compound MIC for antibacterial activity against Vancomycin-resistant Staphylococcus aureus 12; type: functional
Enterococcus [13] = experiment: Potency index, ratio of Vancomycin MIC to test compound MIC for antibacterial activity against Vancomycin-resistant Enterococci NR30903; type: functional, NR 30903
Enterococcus [14] = experiment: Potency index, ratio of Vancomycin MIC to test compound MIC for antibacterial activity against Vancomycin-resistant Enterococci NR30909; type: functional, NR 30909
Enterococcus [15] = experiment: Potency index, ratio of Vancomycin MIC to test compound MIC for antibacterial activity against Vancomycin-resistant Enterococci ATCC 51575; type: functional
Enterococcus [16] = experiment: Potency index, ratio of Vancomycin MIC to test compound MIC for antibacterial activity against Vancomycin-resistant Enterococci ATCC 51559; type: functional
[17] = Induction of hemolysis in human erythrocytes at 250 uM incubated for 1 hr by microtiter plater reader analysis; type: toxicity, cell-based, Erythrocyte; conditions: read-out: Activity

SMILES	MIC (Staphylococcus aureus [1]) [µM]	MIC (Staphylococcus aureus [2]) [µM]	MIC (Staphylococcus aureus [3]) [µM]	MIC (Staphylococcus aureus [4]) [µM]	MIC (Enterococcus [5]) [µM]	MIC (Enterococcus [6]) [µM]	MIC (Enterococcus [7]) [µM]	MIC (Enterococcus [8]) [µM]	HC50 at 1 h [9] [µM]	Ratio (Staphylococcus aureus [10])	Ratio (Staphylococcus aureus [11])	Ratio (Staphylococcus aureus [12])	Ratio (Enterococcus [13])	Ratio (Enterococcus [14])	Ratio (Enterococcus [15])	Ratio (Enterococcus [16])	hemolysis at 1 h, 250 µM [17] [%]
CCCCCCCCCCCCCCNC(=O)c1ccc(CN[C@@]2(C)C[C@H](O[C@H]3[C@H](Oc4c5cc6cc4Oc4ccc(cc4Cl)[C@@H](O)[C@@H](NC(=O)[C@@H](CC(C)C)NC)C(=O)N[C@@H](CC(N)=O)C(=O)N[C@H]6C(=O)N[C@H]4C(=O)N[C@H](C(=O)N[C@H](C(=O)O)c6cc(O)cc(O)c6-c6cc4ccc6O)[C@H](O)c4ccc(c(Cl)c4)O5)O[C@H](CO)[C@@H](O)[C@@H]3O)O[C@@H](C)[C@H]2O)cc1	4 (≈ 7.12 µg/mL)	8 (≈ 14.2 µg/mL)	4 (≈ 7.12 µg/mL)	4 (≈ 7.12 µg/mL)	2 (≈ 3.56 µg/mL)	4 (≈ 7.12 µg/mL)	4 (≈ 7.12 µg/mL)	4 (≈ 7.12 µg/mL)	27.5								
CCCCCCCCCCNC(=O)c1ccc(CN[C@@]2(C)C[C@H](O[C@H]3[C@H](Oc4c5cc6cc4Oc4ccc(cc4Cl)[C@@H](O)[C@@H](NC(=O)[C@@H](CC(C)C)NC)C(=O)N[C@@H](CC(N)=O)C(=O)N[C@H]6C(=O)N[C@H]4C(=O)N[C@H](C(=O)N[C@H](C(=O)O)c6cc(O)cc(O)c6-c6cc4ccc6O)[C@H](O)c4ccc(c(Cl)c4)O5)O[C@H](CO)[C@@H](O)[C@@H]3O)O[C@@H](C)[C@H]2O)cc1	2 (≈ 3.45 µg/mL)	2 (≈ 3.45 µg/mL)	1 (≈ 1.72 µg/mL)	2 (≈ 3.45 µg/mL)	2 (≈ 3.45 µg/mL)	2 (≈ 3.45 µg/mL)	0.2 (≈ 0.345 µg/mL)	2 (≈ 3.45 µg/mL)	62.5	390	390	390	670	670	670	670	
CCCCCCCCNC(=O)C[N+](C)(C)CCCNC(=O)c1ccc(CN[C@@]2(C)C[C@H](O[C@H]3[C@H](Oc4c5cc6cc4Oc4ccc(cc4Cl)[C@@H](O)[C@@H](NC(=O)[C@@H](CC(C)C)NC)C(=O)N[C@@H](CC(N)=O)C(=O)N[C@H]6C(=O)N[C@H]4C(=O)N[C@H](C(=O)N[C@H](C(=O)O)c6cc(O)cc(O)c6-c6cc4ccc6O)[C@H](O)c4ccc(c(Cl)c4)O5)O[C@H](CO)[C@@H](O)[C@@H]3O)O[C@@H](C)[C@H]2O)cc1	0.4	1.8	3.7	3.7	0.9	0.9	14.7	14.7	> 250	750	750	750	750	750	750	750	1
CCCCCCCCCCCCCCNC(=O)C[N+](C)(C)CCCNC(=O)c1ccc(CN[C@@]2(C)C[C@H](O[C@H]3[C@H](Oc4c5cc6cc4Oc4ccc(cc4Cl)[C@@H](O)[C@@H](NC(=O)[C@@H](CC(C)C)NC)C(=O)N[C@@H](CC(N)=O)C(=O)N[C@H]6C(=O)N[C@H]4C(=O)N[C@H](C(=O)N[C@H](C(=O)O)c6cc(O)cc(O)c6-c6cc4ccc6O)[C@H](O)c4ccc(c(Cl)c4)O5)O[C@H](CO)[C@@H](O)[C@@H]3O)O[C@@H](C)[C@H]2O)cc1	1.8	1.8	1.8	1.8	0.9	0.9	1.8	1.8	35	780	780	780	780	780	780	780	
CN[C@H](CC(C)C)C(=O)N[C@H]1C(=O)N[C@@H](CC(N)=O)C(=O)N[C@H]2C(=O)N[C@H]3C(=O)N[C@H](C(=O)N[C@H](C(=O)O)c4cc(O)cc(O)c4-c4cc3ccc4O)[C@H](O)c3ccc(c(Cl)c3)Oc3cc2cc(c3O[C@@H]2O[C@H](CO)[C@@H](O)[C@H](O)[C@H]2O[C@H]2C[C@](C)(NCc3ccc(C(=O)NCCC[N+](C)(C)Cc4ccccc4)cc3)[C@H](O)[C@H](C)O2)Oc2ccc(cc2Cl)[C@H]1O	0.9	30.5	30.5	30.5	> 30	> 30	> 30	> 30	> 250								0
CCCCCCCCCCNC(=O)C[N+](C)(C)CCCNC(=O)c1ccc(C)cc1					> 40	> 40	> 40	> 40									
CN[C@H](CC(C)C)C(=O)N[C@H]1C(=O)N[C@@H](CC(N)=O)C(=O)N[C@H]2C(=O)N[C@H]3C(=O)N[C@H](C(=O)N[C@H](C(=O)O)c4cc(O)cc(O)c4-c4cc3ccc4O)[C@H](O)c3ccc(c(Cl)c3)Oc3cc2cc(c3O[C@@H]2O[C@H](CO)[C@@H](O)[C@H](O)[C@H]2O[C@H]2C[C@](C)(NCc3ccc(-c4ccc(Cl)cc4)cc3)[C@H](O)[C@H](C)O2)Oc2ccc(cc2Cl)[C@H]1O	0.5 (≈ 0.825 µg/mL)	4.2 (≈ 6.93 µg/mL)	2.1 (≈ 3.46 µg/mL)	4.2 (≈ 6.93 µg/mL)	4.2 (≈ 6.93 µg/mL)	4.2 (≈ 6.93 µg/mL)	2.1 (≈ 3.46 µg/mL)	4.2 (≈ 6.93 µg/mL)									
CN[C@H](CC(C)C)C(=O)N[C@H]1C(=O)N[C@@H](CC(N)=O)C(=O)N[C@H]2C(=O)N[C@H]3C(=O)N[C@H](C(=O)N[C@H](C(=O)O)c4cc(O)cc(O)c4-c4cc3ccc4O)[C@H](O)c3ccc(c(Cl)c3)Oc3cc2cc(c3O[C@@H]2O[C@H](CO)[C@@H](O)[C@H](O)[C@H]2O[C@H]2C[C@](C)(NCc3ccc(C(=O)NCCC[N+](C)(C)Cc4cccc5ccccc45)cc3)[C@H](O)[C@H](C)O2)Oc2ccc(cc2Cl)[C@H]1O	0.9	29.8	14.9	3.7	14.9	7.4	> 30	> 30	> 250								0
CCCCCCCCCCCCNC(=O)C[N+](C)(C)CCCNC(=O)c1ccc(CN[C@@]2(C)C[C@H](O[C@H]3[C@H](Oc4c5cc6cc4Oc4ccc(cc4Cl)[C@@H](O)[C@@H](NC(=O)[C@@H](CC(C)C)NC)C(=O)N[C@@H](CC(N)=O)C(=O)N[C@H]6C(=O)N[C@H]4C(=O)N[C@H](C(=O)N[C@H](C(=O)O)c6cc(O)cc(O)c6-c6cc4ccc6O)[C@H](O)c4ccc(c(Cl)c4)O5)O[C@H](CO)[C@@H](O)[C@@H]3O)O[C@@H](C)[C@H]2O)cc1	1.8	0.9	0.9	0.9	0.9	0.9	1.8	1.8	72	780	780	780	780	780	780	780	
